In patent US20130102627A1, “Acridines As Inhibitors Of Haspin And DYRK Kinases” (THE BRIGHAM AND WOMEN'S HOSPITAL, INC., priority 2010, published 2013):

How the values were obtained:
Assay type in all cases: biochemical
[1] = target: T1, human Haspin (MBP-Haspin) (Homo sapiens, UniProt Q8TF76); experiment: TR-FRET Haspin assay; conditions: for haspin inhibitory activity (SAR, in words): compared with LDN-192960
T1 construct: This full-length Haspin gene was cloned into the pMALc2E vector; made in house; host or cells: E. coli Rosetta2(DE3)pLysS
T1 sequence (Q8TF76 1-798): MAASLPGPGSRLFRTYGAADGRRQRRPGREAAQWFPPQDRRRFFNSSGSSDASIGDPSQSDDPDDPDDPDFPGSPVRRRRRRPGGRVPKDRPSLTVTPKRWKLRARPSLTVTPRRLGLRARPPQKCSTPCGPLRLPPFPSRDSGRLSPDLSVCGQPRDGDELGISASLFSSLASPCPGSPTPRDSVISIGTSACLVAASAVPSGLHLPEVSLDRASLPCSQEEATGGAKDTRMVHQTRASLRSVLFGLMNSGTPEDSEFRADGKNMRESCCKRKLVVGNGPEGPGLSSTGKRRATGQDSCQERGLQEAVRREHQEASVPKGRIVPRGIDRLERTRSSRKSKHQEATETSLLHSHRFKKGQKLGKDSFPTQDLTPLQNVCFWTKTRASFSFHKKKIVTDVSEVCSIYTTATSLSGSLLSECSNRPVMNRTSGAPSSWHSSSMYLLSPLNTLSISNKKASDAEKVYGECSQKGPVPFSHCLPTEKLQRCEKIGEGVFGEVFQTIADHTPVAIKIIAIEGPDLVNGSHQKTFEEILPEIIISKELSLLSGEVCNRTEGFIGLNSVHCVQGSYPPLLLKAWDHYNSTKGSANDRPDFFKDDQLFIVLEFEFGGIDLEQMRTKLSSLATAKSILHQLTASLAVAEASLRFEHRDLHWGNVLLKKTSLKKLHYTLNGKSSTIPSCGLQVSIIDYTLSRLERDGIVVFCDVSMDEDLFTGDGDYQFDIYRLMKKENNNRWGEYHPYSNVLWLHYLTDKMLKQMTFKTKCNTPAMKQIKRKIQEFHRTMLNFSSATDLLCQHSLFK
Excerpt: To identify Haspin inhibitors by high throughput screening, a homogeneous kinase assay based on time-resolved fluorescence resonance energy transfer (TR-FRET) was designed. […] Such TR-FRET assays use a lanthanide donor species conjugated to a phospho-specific antibody that binds specifically to the product of kinase reaction labeled with an acceptor fluorophore. This induced proximity of the donor and acceptor fluorophores leads to resonance energy transfer, resulting in a detectable increase of TR-FRET signal.
In the assay described below, a Europium chelate, conjugated to an anti-Histone H3T3ph antibody, as the donor species was used. The acceptor fluorophore, allophycocyanin (APC) was used as a streptavidin conjugate that could bind to a biotinylated Histone H3 peptide substrate. […] Lanthanide ions like Europium have a much longer emission lifetime, often measured in hundreds of microseconds, compared with traditional organic reagents that have lifetimes measured on the scale of […]. TR-FRET assays are thus less susceptible to compound interference generated by short-lived compound or matrix component fluorescence. Furthermore, TR-FRET can be carried out in a homogeneous format that avoids time-consuming separation steps that introduce variability. Based on these properties TR-FRET based assay kinases have been widely used in high throughput screening.
The reaction was incubated for 10 minutes at room temperature. Reaction was terminated by the addition of 10 μl 50 mM EDTA, 2 nM Europium labeled anti-Histone H3T3ph antibody, 40 nM Streptavidin-APC.
Data were analyzed using GraphPad Prism Version 4 (GraphPad Software Inc, La Jolla, Calif.). No inhibitor (“MAX”) and Staurosporine inhibitor (“MIN”) controls were used to calculate Z′ values and signal to background ratios during the high throughput screen. […] Km concentrations were also determined by non-linear regression.
(§1) The human haspin kinase inhibitory activity of the various compounds was evaluated using the same assay utilized for the HTS, except in the presence of varying test compound concentrations. DYRK2 kinase inhibitory activity was measured by ^33P-incorporation into Woodtide peptide substrate in the presence of human DYRK2 containing an N-terminal GST-fusion protein and γ^33P-ATP.

[2] = target: T2, human DYRK2 (GST-DYRK2) (Homo sapiens, UniProt Q92630); experiment: DYRK2 inhibitor assay (33P incorporation into Woodtide peptide); conditions: for IC50: DYRK2 assay of Example 7; for DYRK2 inhibitory activity (SAR, in words): compared with LDN-192960
T2 construct: purchased Carna Biosciences, Japan
T2 sequence (Q92630 1-601): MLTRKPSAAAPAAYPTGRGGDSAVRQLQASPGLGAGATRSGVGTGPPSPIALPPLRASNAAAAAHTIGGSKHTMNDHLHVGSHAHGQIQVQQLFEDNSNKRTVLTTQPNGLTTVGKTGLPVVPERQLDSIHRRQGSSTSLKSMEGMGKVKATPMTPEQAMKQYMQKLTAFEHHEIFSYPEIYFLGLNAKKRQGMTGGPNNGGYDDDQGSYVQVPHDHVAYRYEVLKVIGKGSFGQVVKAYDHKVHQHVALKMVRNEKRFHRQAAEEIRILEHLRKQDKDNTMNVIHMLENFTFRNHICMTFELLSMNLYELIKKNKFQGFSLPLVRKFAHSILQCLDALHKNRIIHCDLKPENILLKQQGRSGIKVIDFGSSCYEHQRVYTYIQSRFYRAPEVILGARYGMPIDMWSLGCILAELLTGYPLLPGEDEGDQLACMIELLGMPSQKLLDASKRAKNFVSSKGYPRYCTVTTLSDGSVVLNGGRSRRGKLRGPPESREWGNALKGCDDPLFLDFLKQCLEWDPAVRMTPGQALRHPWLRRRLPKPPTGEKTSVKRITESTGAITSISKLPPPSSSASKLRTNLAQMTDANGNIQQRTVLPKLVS
Experimental: Reactions were stopped after 10 minutes by addition of 30 mM EDTA followed by spotting 10 μl of the reaction mix on to P81 phosphocellulose filter (Whatman). […] Background level of ^33P incorporation was defined from control reaction lacking peptide.
as §1

[3] = target: TRKB (Homo sapiens, UniProt Q16620); experiment: Kinase profile panel IC50
[4] = target: ROS (Homo sapiens, UniProt P08922); experiment: Kinase profile panel IC50
[5] = target: HIPK1 (Homo sapiens, UniProt Q86Z02); experiment: Kinase profile panel IC50
[6] = target: HIPK2 (Homo sapiens, UniProt Q9H2X6); experiment: Kinase profile panel IC50
[7] = target: PIM1 (Homo sapiens, UniProt P11309); experiment: Kinase profile panel IC50
[8] = target: PIM2 (Homo sapiens, UniProt Q9P1W9); experiment: Kinase profile panel IC50
[9] = target: T3, haspin (Homo sapiens, UniProt Q8TF76); experiment: Carna Bioscience haspin assay
T3 construct: purchased Carna Bioscience (vendor's assay)
T3 sequence (Q8TF76 1-798): T1 sequence (Q8TF76 1-798)

[10] = test system: panel of two hundred and seventy kinases; experiment: Functional inhibition profiling against kinase panel at 10 μM; conditions: panel of 270 kinases

HIPK2, sequence (Q9H2X6 whole entry, species assumed): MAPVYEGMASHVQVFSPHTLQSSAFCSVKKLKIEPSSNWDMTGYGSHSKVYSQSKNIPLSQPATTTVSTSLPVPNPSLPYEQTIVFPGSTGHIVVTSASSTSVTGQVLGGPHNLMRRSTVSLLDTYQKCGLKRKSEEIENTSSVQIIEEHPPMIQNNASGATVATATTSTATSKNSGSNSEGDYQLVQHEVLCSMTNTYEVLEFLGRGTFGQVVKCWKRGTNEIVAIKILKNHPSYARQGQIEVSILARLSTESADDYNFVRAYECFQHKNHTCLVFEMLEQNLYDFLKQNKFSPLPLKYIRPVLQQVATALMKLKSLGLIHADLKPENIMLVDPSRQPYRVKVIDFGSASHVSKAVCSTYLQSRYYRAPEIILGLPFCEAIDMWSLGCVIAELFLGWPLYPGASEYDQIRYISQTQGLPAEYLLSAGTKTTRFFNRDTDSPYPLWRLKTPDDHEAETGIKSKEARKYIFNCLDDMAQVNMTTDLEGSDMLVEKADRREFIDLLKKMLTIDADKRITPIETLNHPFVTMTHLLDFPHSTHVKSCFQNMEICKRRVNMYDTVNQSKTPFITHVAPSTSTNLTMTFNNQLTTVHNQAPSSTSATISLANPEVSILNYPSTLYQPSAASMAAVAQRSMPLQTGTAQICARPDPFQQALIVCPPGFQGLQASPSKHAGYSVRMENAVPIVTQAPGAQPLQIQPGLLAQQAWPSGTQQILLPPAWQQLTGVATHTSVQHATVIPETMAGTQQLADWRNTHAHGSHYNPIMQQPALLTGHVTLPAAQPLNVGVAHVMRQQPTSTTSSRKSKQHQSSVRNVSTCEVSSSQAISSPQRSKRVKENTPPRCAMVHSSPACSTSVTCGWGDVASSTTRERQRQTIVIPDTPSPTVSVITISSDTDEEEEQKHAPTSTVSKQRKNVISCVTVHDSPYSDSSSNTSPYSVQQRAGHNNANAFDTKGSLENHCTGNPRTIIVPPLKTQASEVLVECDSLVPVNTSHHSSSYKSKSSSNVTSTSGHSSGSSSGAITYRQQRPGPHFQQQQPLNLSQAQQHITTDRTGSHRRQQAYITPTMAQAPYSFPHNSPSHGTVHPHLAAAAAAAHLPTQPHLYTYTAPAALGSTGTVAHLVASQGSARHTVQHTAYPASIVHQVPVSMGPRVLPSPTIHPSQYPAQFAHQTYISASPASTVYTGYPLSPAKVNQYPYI
PIM2, sequence (Q9P1W9 whole entry, species assumed): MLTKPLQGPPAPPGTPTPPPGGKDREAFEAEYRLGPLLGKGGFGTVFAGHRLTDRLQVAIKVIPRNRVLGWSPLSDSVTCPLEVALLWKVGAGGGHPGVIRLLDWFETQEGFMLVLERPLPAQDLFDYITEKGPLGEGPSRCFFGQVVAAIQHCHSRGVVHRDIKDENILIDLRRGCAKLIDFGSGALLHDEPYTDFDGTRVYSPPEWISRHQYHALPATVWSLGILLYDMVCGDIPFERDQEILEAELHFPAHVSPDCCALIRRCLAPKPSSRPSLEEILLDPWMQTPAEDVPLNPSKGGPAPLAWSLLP
ROS, sequence (P08922 28-2347, species assumed): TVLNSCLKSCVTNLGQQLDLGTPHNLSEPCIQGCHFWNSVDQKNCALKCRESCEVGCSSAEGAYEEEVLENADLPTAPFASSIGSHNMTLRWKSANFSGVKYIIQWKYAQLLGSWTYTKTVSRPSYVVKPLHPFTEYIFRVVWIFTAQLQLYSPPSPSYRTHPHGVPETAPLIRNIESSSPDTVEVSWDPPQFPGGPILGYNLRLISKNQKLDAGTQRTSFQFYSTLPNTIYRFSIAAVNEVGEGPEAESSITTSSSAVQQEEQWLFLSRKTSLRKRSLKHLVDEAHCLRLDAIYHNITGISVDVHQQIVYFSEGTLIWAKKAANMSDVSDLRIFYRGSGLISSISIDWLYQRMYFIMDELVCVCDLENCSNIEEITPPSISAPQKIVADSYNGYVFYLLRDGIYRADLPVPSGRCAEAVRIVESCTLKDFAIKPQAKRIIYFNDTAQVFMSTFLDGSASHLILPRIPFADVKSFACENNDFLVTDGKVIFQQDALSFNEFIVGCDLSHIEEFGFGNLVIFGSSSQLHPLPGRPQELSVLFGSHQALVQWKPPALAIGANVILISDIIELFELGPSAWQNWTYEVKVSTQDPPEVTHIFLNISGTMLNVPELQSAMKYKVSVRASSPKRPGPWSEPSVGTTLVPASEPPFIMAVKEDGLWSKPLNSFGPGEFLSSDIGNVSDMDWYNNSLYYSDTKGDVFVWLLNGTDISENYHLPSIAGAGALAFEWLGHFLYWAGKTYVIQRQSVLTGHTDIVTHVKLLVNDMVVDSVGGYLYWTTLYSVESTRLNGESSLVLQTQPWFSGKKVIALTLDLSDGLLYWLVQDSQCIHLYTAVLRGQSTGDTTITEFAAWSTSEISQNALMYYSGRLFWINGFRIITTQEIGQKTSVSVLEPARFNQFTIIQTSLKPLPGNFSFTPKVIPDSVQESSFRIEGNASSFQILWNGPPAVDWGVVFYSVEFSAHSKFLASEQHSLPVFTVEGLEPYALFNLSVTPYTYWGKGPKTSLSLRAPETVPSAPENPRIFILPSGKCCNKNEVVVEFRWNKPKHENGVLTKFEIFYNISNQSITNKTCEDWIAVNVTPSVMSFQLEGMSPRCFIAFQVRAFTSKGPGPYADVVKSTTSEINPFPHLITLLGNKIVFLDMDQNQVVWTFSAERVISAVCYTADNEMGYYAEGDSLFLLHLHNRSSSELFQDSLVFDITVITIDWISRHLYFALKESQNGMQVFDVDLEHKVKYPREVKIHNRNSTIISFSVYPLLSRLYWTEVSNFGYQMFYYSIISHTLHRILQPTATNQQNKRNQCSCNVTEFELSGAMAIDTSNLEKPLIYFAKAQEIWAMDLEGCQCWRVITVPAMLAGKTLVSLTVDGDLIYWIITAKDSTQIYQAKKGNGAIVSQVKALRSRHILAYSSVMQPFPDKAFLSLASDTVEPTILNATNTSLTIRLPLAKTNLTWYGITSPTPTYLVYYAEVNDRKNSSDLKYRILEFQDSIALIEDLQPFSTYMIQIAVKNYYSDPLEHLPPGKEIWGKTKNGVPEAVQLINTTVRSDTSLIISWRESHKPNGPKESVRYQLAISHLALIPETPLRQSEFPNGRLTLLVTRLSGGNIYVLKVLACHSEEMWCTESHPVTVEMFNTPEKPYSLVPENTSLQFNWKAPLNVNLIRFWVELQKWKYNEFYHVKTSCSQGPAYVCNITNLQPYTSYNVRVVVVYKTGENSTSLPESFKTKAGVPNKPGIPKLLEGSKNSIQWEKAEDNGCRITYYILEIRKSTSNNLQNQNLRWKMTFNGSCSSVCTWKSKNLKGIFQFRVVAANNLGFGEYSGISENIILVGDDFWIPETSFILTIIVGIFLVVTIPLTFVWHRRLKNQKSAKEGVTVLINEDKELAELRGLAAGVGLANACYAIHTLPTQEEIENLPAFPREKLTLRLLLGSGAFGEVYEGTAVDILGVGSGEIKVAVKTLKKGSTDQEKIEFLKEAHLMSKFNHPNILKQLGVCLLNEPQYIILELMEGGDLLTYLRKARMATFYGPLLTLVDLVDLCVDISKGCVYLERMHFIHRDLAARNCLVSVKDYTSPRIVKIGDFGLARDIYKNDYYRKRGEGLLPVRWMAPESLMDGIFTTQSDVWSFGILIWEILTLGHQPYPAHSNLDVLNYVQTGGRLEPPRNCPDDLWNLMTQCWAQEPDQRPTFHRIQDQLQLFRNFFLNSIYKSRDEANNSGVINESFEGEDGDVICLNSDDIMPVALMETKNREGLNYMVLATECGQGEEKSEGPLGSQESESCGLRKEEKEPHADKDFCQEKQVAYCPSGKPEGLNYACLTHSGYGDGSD
TRKB, sequence (Q16620 32-822, species assumed): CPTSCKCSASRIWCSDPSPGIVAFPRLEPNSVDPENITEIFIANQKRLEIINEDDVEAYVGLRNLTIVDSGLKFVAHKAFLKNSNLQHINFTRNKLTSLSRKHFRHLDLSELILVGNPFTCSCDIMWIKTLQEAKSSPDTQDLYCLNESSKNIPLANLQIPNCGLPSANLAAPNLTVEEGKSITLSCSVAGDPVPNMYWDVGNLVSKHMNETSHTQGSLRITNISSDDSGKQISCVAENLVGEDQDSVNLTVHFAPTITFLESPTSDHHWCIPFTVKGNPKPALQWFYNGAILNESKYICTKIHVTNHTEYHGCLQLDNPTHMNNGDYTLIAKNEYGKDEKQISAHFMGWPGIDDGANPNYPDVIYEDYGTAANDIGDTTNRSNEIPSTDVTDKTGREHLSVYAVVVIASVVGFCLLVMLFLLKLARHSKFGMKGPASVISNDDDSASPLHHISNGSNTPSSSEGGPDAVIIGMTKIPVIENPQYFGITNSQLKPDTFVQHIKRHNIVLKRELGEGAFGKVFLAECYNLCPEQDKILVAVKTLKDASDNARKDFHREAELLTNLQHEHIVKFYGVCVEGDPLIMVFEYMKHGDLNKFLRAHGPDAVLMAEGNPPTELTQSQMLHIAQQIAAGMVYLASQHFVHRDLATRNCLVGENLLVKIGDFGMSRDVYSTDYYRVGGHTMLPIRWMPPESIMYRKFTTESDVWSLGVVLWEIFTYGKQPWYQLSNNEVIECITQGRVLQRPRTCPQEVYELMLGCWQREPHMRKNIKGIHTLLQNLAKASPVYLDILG
PIM1, sequence (P11309 whole entry, species assumed): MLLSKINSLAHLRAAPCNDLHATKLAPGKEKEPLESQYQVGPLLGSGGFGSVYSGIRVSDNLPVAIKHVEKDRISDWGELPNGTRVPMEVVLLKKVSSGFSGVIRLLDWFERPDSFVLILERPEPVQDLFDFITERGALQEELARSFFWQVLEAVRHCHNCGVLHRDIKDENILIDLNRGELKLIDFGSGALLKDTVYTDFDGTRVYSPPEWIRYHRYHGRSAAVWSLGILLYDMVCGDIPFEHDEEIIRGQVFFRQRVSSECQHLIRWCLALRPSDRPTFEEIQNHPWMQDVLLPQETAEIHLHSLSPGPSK

SMILES | IC50 ([1]; TR-FRET assay of Example 3) [nM] | haspin inhibitory activity (SAR, in words) [1] | IC50 [2] [nM] | DYRK2 inhibitory activity (SAR, in words) [2] | other results
COc1ccc2nc3ccc(OC)cc3c(SCCN)c2c1 [LDN-209958] | < 200 | reduced activity | < 500 |  | 
NCCCSc1c2ccccc2nc2ccccc12 [LDN-209961] | < 10000 | inhibitory activity was dramatically reduced | < 10000 | very detrimental | 
COc1ccc2nc3ccc(OC)cc3c(SCCCN)c2c1 [LDN-192960] |  |  |  |  | IC50 [3]: 91000 nM; IC50 [4]: 1600 nM; IC50 [5]: 1400 nM; IC50 [6]: 1300 nM; IC50 [7]: 720 nM; IC50 [8]: 56000 nM; inhibition at 10 µM [9]: 100%; number of other kinases inhibited by ≧90% [10]: ten
COc1ccc2nc3ccc(OC)cc3c(SCCCCN)c2c1 [LDN-209959] | < 50 | only a minimal impact on potency | < 50 |  | 
COc1cc2c(SCCCN)c3ccccc3nc2cc1Cl [LDN-209957] | < 100 | still quite active | < 10000 | not tolerated | 
COc1ccc2nc3ccc(OC)cc3c(OCCCN)c2c1 [LDN-209963] | > 20000 | detrimental | > 20000 | detrimental to DYRK2 inhibition | 
COc1ccc2nc3ccc(OC)cc3c(SCCCN3C(=O)c4ccccc4C3=O)c2c1 [LDN-211848] | < 10000 | significant loss of activity |  | moderately potent | 
COc1ccc2nc3ccc(Cl)cc3c(SCCCN)c2c1 [LDN-209929] | < 100 |  | < 10000 | not as tolerated | selectivity for haspin versus DYRK2 [1]: 180 fold; IC50 ([1]; text of SAR study): < 60 nM
COc1ccc2nc3ccc(C)cc3c(SCCCN)c2c1 [LDN-209928] | < 100 |  | < 500 | not as tolerated | IC50 ([1]; text of SAR study): < 100 nM
COc1ccc2nc3ccc(OC)cc3c(CCCCN)c2c1 [LDN-209973] | < 50 | retained potent inhibitory activity | < 500 | tolerated | reduction in DYRK2 potency ([2]; relative to LDN-192960 (sulfur replaced with methylene)): 5 fold
COc1ccc2nc3ccc(OC)cc3c(SCCCN(C)C)c2c1 [LDN-212055] | < 50 | slight decrease in activity | < 500 |  | 
COc1cc2nc3ccccc3c(SCCCN)c2cc1OC [LDN-192965] | > 20000 | loss of activity | > 10000 | loss in activity | 
CNCCCSc1c2cc(OC)ccc2nc2ccc(OC)cc12 [LDN-209960] | < 10 | equally potent | < 200 |  | 

Now from value to compound, other results behind:

IC50 ([1]; TR-FRET assay of Example 3) [nM] | haspin inhibitory activity (SAR, in words) [1] | IC50 [2] [nM] | DYRK2 inhibitory activity (SAR, in words) [2] | SMILES | other results
< 50 |  | < 200 |  | NCCCSc1c2cc(O)ccc2nc2ccc(O)cc12 [LDN-209838] | 
< 10000 | significant loss of activity | < 1000 |  | COc1ccc2nc3ccccc3c(SCCCN3C(=O)c4ccccc4C3=O)c2c1 [LDN-211849] | 
< 10000 |  | > 10000 |  | COc1ccc2nc(-c3ccccc3)cc(SCCCN)c2c1 [LDN-209964] | 
> 20000 |  | > 10000 |  | COc1cc(OC)c2nc3ccccc3c(NCCCN(C)C)c2c1 [LDN-209839] | 
< 500 |  | < 10000 |  | COc1ccc2nc3c(c(SCCCN)c2c1)CCCC3 [LDN-211840] | 
< 5000 | detrimental | < 10000 | detrimental to DYRK2 inhibition | COc1ccc2nc3ccc(OC)cc3c(NCCCN)c2c1 [LDN-209962] | 
< 50 |  | < 200 | significant erosion of potency | COc1ccc2nc3ccccc3c(SCCCN)c2c1 [LDN-209856] | IC50 ([1]; text of SAR study): < 100 nM
> 20000 |  | > 1000 |  | CCN(CC)CCCNc1c2ccccc2nc2c(OC)cc(OC)cc12 [LDN-209840] | 
